One may read the Km as the concentration of substrate that gives half-maximal velocity. Usually Ki stands for a dissociation constant, usually derived from enzyme kinetics or from competition with a known ligand.

The values that follow come from PMC3944805, “Reinterpreting the Mechanism of Inhibition of Mycobacterium tuberculosisD-Alanine:D-Alanine Ligase by D-Cycloserine” (Biochemistry, 2013).

Series [1] concerns the target T1, Mycobacterium tuberculosis Ddl (MtDdl) (Mycobacterium tuberculosis, UniProt P9WP31).
T1 construct: hexahistidine tag; made in house
The conditions noted are these: cited from earlier work.

The target in series [2] is T2, Escherichia coli DdlB (EcDdl) (Escherichia coli, UniProt P07862). Further details: hexahistidine tag (from pET28a+) (N); made in house; host or cells: E. coli BL21; method as in Zawadzke et al., 1991. The following applies: EcDdlB, previously published value in parentheses, ref Zawadzke et al., 1991, cited from earlier work.
For series [3], the target named is T1, Mycobacterium tuberculosis Ddl (MtDdl). The experiment in a line: Slow-onset inhibition of MtDdl by stopped-flow coupled enzyme time courses. Format: biochemical. The conditions noted are these: for koff: read-out: k–2 (DCS dissociation rate constant). As for the experimental part: (§1) Steady-state kinetics and equilibrium binding were performed as previously described.[4] Time courses for the measurement of slow-onset inhibition were collected on an SX20 stopped-flow spectrometer (Applied Photophysics) at 37 °C, using a 10 mm path-length cell. Data points were recorded every 0.1 s. Catalysis was detected by the same coupled enzyme mechanism as used previously for steady-state kinetic measurements.[4] All reaction mixtures contained 50 mM HEPES (pH 7.3), 10 mM MgCl2, 80 mM KCl, 3 mM ATP, 0.25 mM NADH, 1.5 mM PEP, and a 40 μL/mL pyruvate kinase/lactate dehydrogenase enzyme solution (PK-LDH; stock solution of 600–1000 units/mL PK and 900–1400 units/mL LDH). MtDdl was employed at concentrations from 60 to 290 nM and EcDdl at a final concentration of 30 nM. DCS and D-Ala concentrations were varied as required. Reaction components were sorted into two syringes, with rapid mixing of 60 μL from each starting each reaction. For all assays, both syringes contained HEPES, MgCl2, KCl, NADH, PEP, and PK-LDH. MtDdl and D-Ala were always stored in separate syringes. For analysis of slow-onset inhibition at the C-terminal D-Ala binding site (i.e., data for Figure 1), DCS and Mt/EcDdl were stored in separate reaction mixtures prior to the commencement of the reaction. For analysis of slow-onset inhibition at the N-terminal D-Ala site (i.e., data for Figure 2), MtDdl and DCS (with or without ATP) were stored in the same reaction mixture (for at least 4 min) prior to the commencement of the reaction.
(§2) Individual time course data were fit using eq 1 [drawing 1] 1 where [P]t is the product formed at time t, [E] is the total MtDdl concentration, vi is the initial rate, vf is the final (steady-state) rate, and kobs is the apparent rate constant for approach to the steady state.[7] Time courses were performed in triplicate and kobs values averaged for each DCS and D-Ala concentration tested. Secondary replots of kobs versus DCS concentration were fit using eq 2 [drawing 2] 2 where [I] is the DCS concentration, [S] is the D-Ala concentration, and k2 and k–2 are rate constants as described in Scheme 2. The Km value was that for the C-terminal site (4 mM), as previously reported.[4]

Another series relates to MtDdl. The experiment in a line: Theoretical calculation of dissociative t1/2 for MtDdl:ATP:D-Ala1:D-Ala2 complex. Further details: species or system Mycobacterium tuberculosis. The conditions noted are these: theoretical calculations. The source says:
Supporting Information to:
Reinterpreting the mechanism of inhibition of Mycobacterium tuberculosis D-Alanine:D-Alanine ligase by D-Cycloserine.
Gareth Prosser and Luiz Pedro S. de Carvalho.
Division of Mycobacterial Research, MRC National Institute for Medical Research, The Ridgeway, […]
Table S1. Steady-state kinetic parameters for MtDdl and EcDdl. […]
aReaction conditions for both enzymes were as previously reported.1 bValues for MtDdl taken from our previous work.1 cValues in parentheses are previously published values.2
Theoretical calculation of dissociative t1/2 for MtDdl:ATP:D-Ala1:D-Ala2 complex […]
k = diffusion-rate limited = 1 × 1010 M-1.s-1
Figure S1. Comparison of dissociative half-lives (t1/2) of MtDdl:ATP:D-Ala:DCS and MtDdl:ATP:D-Ala-D-Ala complexes. Half-life for DCS-containing complex was measured experimentally as described in the main paper. Half-life for D-Ala-only-containing complex was calculated theoretically as described […]
(1 picture or pasted object on this page, not shown here)

Series [4] deals with T2, Escherichia coli DdlB (EcDdl). The experiment in a line: Steady-state kinetics of EcDdl.
Description: (§3) Time courses for the measurement of slow-onset inhibition were collected on an SX20 stopped-flow spectrometer (Applied Photophysics) at 37 °C, using a 10 mm path-length cell. Data points were recorded every 0.1 s. Catalysis was detected by the same coupled enzyme mechanism as used previously for steady-state kinetic measurements.[4] All reaction mixtures contained 50 mM HEPES (pH 7.3), 10 mM MgCl2, 80 mM KCl, 3 mM ATP, 0.25 mM NADH, 1.5 mM PEP, and a 40 μL/mL pyruvate kinase/lactate dehydrogenase enzyme solution (PK-LDH; stock solution of 600–1000 units/mL PK and 900–1400 units/mL LDH). MtDdl was employed at concentrations from 60 to 290 nM and EcDdl at a final concentration of 30 nM. DCS and D-Ala concentrations were varied as required. Reaction components were sorted into two syringes, with rapid mixing of 60 μL from each starting each reaction. For all assays, both syringes contained HEPES, MgCl2, KCl, NADH, PEP, and PK-LDH. MtDdl and D-Ala were always stored in separate syringes. For analysis of slow-onset inhibition at the C-terminal D-Ala binding site (i.e., data for Figure 1), DCS and Mt/EcDdl were stored in separate reaction mixtures prior to the commencement of the reaction. […]
Series [5] has the same target. The experiment in a line: Slow-onset inhibition of EcDdl by stopped-flow coupled enzyme time courses. Format: biochemical. Also noted: hexahistidine tag (from pET28a+) (N); made in house; host or cells: E. coli BL21. On the procedure: as §1, §2
Another series has as its system C[C@@H](N)C(=O)O. Description: purified protein, by the assay type. The following applies: other: EcDdlB; pH 7.3; 37.0 °C.
Where [6] appears, read: MtDdl preincubated with ATP with DCS, MtDdl–ATP complex, 40 mM D-Ala, 3 mM ATP.
The mark [7] stands for this setting: MtDdl preincubated with ATP, C-terminal D-Ala site, averaged over 0.4 to 40 mM D-Ala, 37 °C, pH 7.3.
Where [8] appears, read: EcDdl preincubated with ATP, only 0.75 mM D-Ala tested.

Like-named read-outs stand apart in the source and are kept apart here.

T1 sequence (P9WP31 whole entry): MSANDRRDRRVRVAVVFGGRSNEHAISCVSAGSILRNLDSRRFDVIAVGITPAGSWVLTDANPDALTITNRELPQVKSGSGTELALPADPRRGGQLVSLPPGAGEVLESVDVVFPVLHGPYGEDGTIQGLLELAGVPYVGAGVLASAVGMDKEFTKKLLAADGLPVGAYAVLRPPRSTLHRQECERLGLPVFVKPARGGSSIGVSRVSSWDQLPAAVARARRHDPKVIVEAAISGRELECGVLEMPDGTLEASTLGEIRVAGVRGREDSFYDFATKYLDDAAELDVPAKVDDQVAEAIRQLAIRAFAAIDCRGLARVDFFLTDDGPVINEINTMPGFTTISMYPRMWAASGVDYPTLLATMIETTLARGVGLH
Description for C[C@@H](N)C(=O)O: as §3

Turning to `C[C@@H](N)C(=O)O` [D-Ala, D-alanine], the Km in series [1] (read-out: Km for the C-terminal site, value used in eq 2) is 4 mM; in series [1] (read-out: Km,D-Ala2, C-terminal site, previous work, ref Prosser and de Carvalho, 2013), 3.6 ± 0.6 mM; in series [2] (read-out: Km,D-Ala2), 1.2 mM.

Take `N[C@@H]1CONC1=O` [DCS, (R)-4-amino-1,2-oxazolidin-3-one]: the “t1/2 (dissociative half-life)” value in series [3] (MtDdl preincubated with ATP with DCS, MtDdl–ATP complex) is recorded as 25 s; in series [3] (MtDdl preincubated with ATP, MtDdl:ATP:D-Ala:DCS complex) it was 48 s; in series [5] (setting [8]) it was 5 s. Besides, the “k2 (DCS binding rate constant)” value in series [3] (setting [6]) stood at 373 ± 11 M^–1 s^–1; in series [3] (setting [7]) it was 888 ± 36 M^–1 s^–1; in series [5] (setting [8]), 2970 ± 360 M^–1 s^–1. Further, the koff in series [3] (setting [6]) was found to be 0.028 ± 0.001 s⁻¹; in series [3] (setting [7]), 0.014 ± 0.003 s⁻¹; in series [5] (EcDdl preincubated with ATP, only 0.75 mM D-Ala tested, read-out: k–2 (DCS dissociation rate constant)), 0.13 ± 0.03 s⁻¹. In addition, the “DCS–MtDdl complex residence time longer than that for the D-Ala–MtDdl complex” value with MtDdl is recorded as “up to 8 orders of magnitude”. Besides, the “stability by one-dimensional NMR” value (across all pHs tested over the time frame of the experiment) was “stable”. Moreover, the “stability by one-dimensional and 13C HSQC NMR” value (in the presence and absence of enzyme (and other buffer components)) is given as “no spectral changes”. Also, the Ki in series [1] (MtDdl–ATP–D-Ala complex, previous work, read-out: Ki,DCS2) is 25 µM; in series [1] (previous data, read-out: Ki,DCS1), 15 µM; in series [4] it was 44 ± 10 µM; in series [2] (read-out: Ki,DCS2), 27 µM. Further, the “fold faster rate of association of the enzyme–inhibitor complex (k2), EcDdl vs MtDdl” value in series [5] (EcDdl compared with MtDdl) was above 3 fold. The “fold faster rate of dissociation of the enzyme–inhibitor complex (k–2), EcDdl vs MtDdl” value in series [5] (EcDdl compared with MtDdl) stood at 10 fold.

In the case of “Escherichia coli DdlB (EcDdl) (Escherichia coli K-12)”, in the series with C[C@@H](N)C(=O)O, the Km was determined as 0.8 ± 0.07 mM.
